Assay results published in patent US20250262211A1, “COMBINATION OF RAS INHIBITORS AND […] INHIBITORS FOR THE TREATMENT OF CANCERS” (INSTITUT NATIONAL DE LA SANTÉ ET DE LA RECHERCHE MÉDICALE, priority 2022, published 2025).

What was measured:
Assay type in all cases: cell-based
[1] = system: H23 cells (KRas G12C); assay: Cell confluency of H23 cells under treatment, Incucyte Live-Cell Analysis / amidoblack staining; details: drug used alone, 1 μM, 35 days
Procedure: FIG. 1. […] A. Cell confluency was measured twice a week over 35 days of indicated treatments. B. Amidoblack staining of a 6-well plate after 35 of indicated treatments.
Medium was changed twice a week and cell confluency was monitored by Incucyte® Live-Cell Analysis System.

[2] = system: Calu-1 KRAS (G12C)-mutant non-small cell lung cancer (NSCLC) cell line; assay: FUCCI-transduced Calu-1 cells, response/relapse monitored by Incucyte during 50 days; details: Calu-1, 50 days
[3] = system: H23 KRAS (G12C)-mutant non-small cell lung cancer (NSCLC) cell line; assay: FUCCI-transduced H23 cells, response/relapse monitored by Incucyte during 50 days; details: H23, 50 days
[4] = 1 μM tipifarnib added to 1 μM sotorasib

SMILES | anti-tumor effect (cell confluency) [1] | emergence of resistant proliferative clones (total cell number) ([2]; 1 μM sotorasib alone) | emergence of resistant proliferative clones (total cell number) ([3]; 1 μM sotorasib alone) | cell cycle dynamics [2, 4] | emergence of resistant proliferative clones (total cell number) [2, 4] | cell cycle dynamics [3, 4] | emergence of resistant proliferative clones (total cell number) [3, 4]
C=CC(=O)N1CCN(c2nc(=O)n(-c3c(C)ccnc3C(C)C)c3nc(-c4c(O)cccc4F)c(F)cc23)[C@@H](C)C1 [sotorasib, 6-fluoro-7-(2-fluoro-6-hydroxyphenyl)-1-[4-methyl-2-(propan-2-yl)pyridin-3-yl]-4-[(2S)-2-methyl-4-(prop-2-enoyl)piperazin-1-yl]-1H,2H-pyrido[2,3-d]pyrimidin-2-one] | did not show a significant anti-tumor effect | developed resistant proliferative clones (RPC) | developed resistant proliferative clones (RPC) | – | – | – | –
Cn1cncc1[C@@](N)(c1ccc(Cl)cc1)c1ccc2c(c1)c(-c1cccc(Cl)c1)cc(=O)n2C [tipifarnib, (R)-6-[amino (4-chlorophenyl) (1-methyl-1H-imidazol-5-yl)methyl]-4-(3-chlorophenyl)-1-methyl-2 (1H)-quinolinone] | did not show a significant anti-tumor effect | – | – | strongly impacting cell cycle dynamics, resulting in cell death | prevented the emergence of RPC | strongly impacting cell cycle dynamics, resulting in cell death | prevented the emergence of RPC
